Measurements: the NIST ThermoML archive (doi:10.1016/j.jct.2013.02.023)
Numbers after ± are expanded uncertainties.

Conditions: relaxation calorimetry - Quantum Design PPMS; for molar entropy: 101.33 kPa

O=P([O-])([O-])OP(=O)([O-])[O-].O=P([O-])([O-])OP(=O)([O-])[O-].O=P([O-])([O-])OP(=O)([O-])[O-].[Fe+3].[Fe+3].[Fe+3].[Fe+3] [iron(III) diphosphate]
Conditions	molar entropy [J/K/mol]
1 K, Crystal 3	0.07578 ± 0.012
2 K, Crystal 3	0.1665 ± 0.026
3 K, Crystal 3	0.2869 ± 0.044
4 K, Crystal 3	0.4556 ± 0.07
5 K, Crystal 3	0.6947 ± 0.11
6 K, Crystal 3	1.027 ± 0.16
7 K, Crystal 3	1.472 ± 0.23
8 K, Crystal 3	2.047 ± 0.31
9 K, Crystal 3	2.754 ± 0.42
10 K, Crystal 3	3.591 ± 0.13
11 K, Crystal 3	4.553 ± 0.17
12 K, Crystal 3	5.629 ± 0.2
13 K, Crystal 3	6.809 ± 0.25
14 K, Crystal 3	8.084 ± 0.29
15 K, Crystal 3	9.437 ± 0.34
16 K, Crystal 3	10.86 ± 0.39
17 K, Crystal 3	12.36 ± 0.45
18 K, Crystal 3	13.92 ± 0.5
19 K, Crystal 3	15.55 ± 0.56
20 K, Crystal 3	17.25 ± 0.62
25 K, Crystal 3	26.52 ± 0.96
30 K, Crystal 2	36.76 ± 1.3
35 K, Crystal 2	47.46 ± 1.7
40 K, Crystal 2	59.06 ± 2.1
45 K, Crystal 2	71.73 ± 2.6
50 K, Crystal 1	84.46 ± 2.8
55 K, Crystal 1	93.95 ± 3.1
60 K, Crystal 1	103.22 ± 3.4
65 K, Crystal 1	112.55 ± 3.7
70 K, Crystal 1	121.98 ± 4
75 K, Crystal 1	131.56 ± 4.3
80 K, Crystal 1	141.27 ± 4.7
85 K, Crystal 1	151.12 ± 5
90 K, Crystal 1	161.1 ± 5.3
95 K, Crystal 1	171.2 ± 5.7
100 K, Crystal 1	181.43 ± 6
110 K, Crystal 1	202.07 ± 6.7
120 K, Crystal 1	222.81 ± 7.3
130 K, Crystal 1	243.5 ± 8
140 K, Crystal 1	264.06 ± 8.7
150 K, Crystal 1	284.46 ± 9.4
160 K, Crystal 1	304.66 ± 10
170 K, Crystal 1	324.67 ± 11
180 K, Crystal 1	344.47 ± 11
190 K, Crystal 1	364.05 ± 12
200 K, Crystal 1	383.42 ± 13
210 K, Crystal 1	402.56 ± 13
220 K, Crystal 1	421.48 ± 14
230 K, Crystal 1	440.17 ± 15
240 K, Crystal 1	458.61 ± 15
250 K, Crystal 1	476.82 ± 16
260 K, Crystal 1	494.79 ± 16
270 K, Crystal 1	512.5 ± 17
273.15 K, Crystal 1	518.03 ± 17
280 K, Crystal 1	529.97 ± 17
290 K, Crystal 1	547.19 ± 18
298.15 K, Crystal 1	561.03 ± 19
300 K, Crystal 1	564.15 ± 19

Conditions	Triple point temperature [K]
Crystal 2	47.6 ± 0.1
Crystal 3	27.3 ± 0.2
